The record followed here is ChEMBL document CHEMBL1147408, “Modulation of selective serotonin reuptake inhibitor and 5-HT1A antagonist activity in 8-aza-bicyclo[3.2.1]octane derivatives of 2,3-dihydro-1,4-benzodioxane” (Bioorg Med Chem Lett, 2004).

The Ki is a dissociation constant, usually derived from enzyme kinetics or from competition with a known ligand. The IC50 is the concentration at which inhibition is half-maximal. Usually inhibition stands for the share of the control response that was lost under treatment. One may read the Emax as the greatest response seen or fitted, relative to the assay's reference.

Assay [1] concerns the target T1, 5-hydroxytryptamine receptor 1A (Homo sapiens, UniProt P08908).
T1 sequence (P08908 whole entry): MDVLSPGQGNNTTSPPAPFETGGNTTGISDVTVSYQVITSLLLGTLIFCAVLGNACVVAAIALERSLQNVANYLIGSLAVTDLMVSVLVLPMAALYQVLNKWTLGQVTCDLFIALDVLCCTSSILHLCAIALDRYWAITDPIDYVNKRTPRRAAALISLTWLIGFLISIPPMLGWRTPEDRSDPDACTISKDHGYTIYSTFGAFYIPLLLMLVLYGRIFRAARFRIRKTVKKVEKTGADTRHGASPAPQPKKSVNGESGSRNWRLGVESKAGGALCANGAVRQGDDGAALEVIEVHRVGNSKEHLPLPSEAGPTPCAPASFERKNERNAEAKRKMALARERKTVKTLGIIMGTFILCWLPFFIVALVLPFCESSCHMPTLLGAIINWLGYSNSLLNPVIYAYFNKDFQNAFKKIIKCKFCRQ
The assay can be described thus: Displacement of [3H]8-OH-DPAT from human 5-hydroxytryptamine 1A receptor expressed in CHO cells. The class given is cell-based.

Assay [2] has as its target T1, 5-hydroxytryptamine receptor 1A. The assay can be described thus: Agonistic activity of compound towards 5-hydroxytryptamine 1A receptor was evaluated by forskolin stimulated cAMP assay. The class given is functional.
The target in assay [3] is T2, 5-hydroxytryptamine receptor 1A (Homo sapiens) (UniProt P08908).
T2 sequence (whole entry): T1 sequence (P08908 whole entry)
In words: (§1) Agonistic activity of compound towards 5-hydroxytryptamine 1A receptor was evaluated by [35S]GTP-gamma-S, stimulated cAMP assay. The class given is functional. In general terms: GTPγS resists hydrolysis and so accumulates on activated G proteins.

Assay [4] addresses T1, 5-hydroxytryptamine receptor 1A. The description is as §1. The class given is functional.
In assay [5] the target is Sodium-dependent serotonin transporter (Rattus norvegicus) (UniProt P31652). In words: Inhibition of serotonin transporter. Further details: concentration or dose not given beside the values. Conditions: concentration not given here.
Sequence of Sodium-dependent serotonin transporter (Rattus norvegicus) (P31652 whole entry): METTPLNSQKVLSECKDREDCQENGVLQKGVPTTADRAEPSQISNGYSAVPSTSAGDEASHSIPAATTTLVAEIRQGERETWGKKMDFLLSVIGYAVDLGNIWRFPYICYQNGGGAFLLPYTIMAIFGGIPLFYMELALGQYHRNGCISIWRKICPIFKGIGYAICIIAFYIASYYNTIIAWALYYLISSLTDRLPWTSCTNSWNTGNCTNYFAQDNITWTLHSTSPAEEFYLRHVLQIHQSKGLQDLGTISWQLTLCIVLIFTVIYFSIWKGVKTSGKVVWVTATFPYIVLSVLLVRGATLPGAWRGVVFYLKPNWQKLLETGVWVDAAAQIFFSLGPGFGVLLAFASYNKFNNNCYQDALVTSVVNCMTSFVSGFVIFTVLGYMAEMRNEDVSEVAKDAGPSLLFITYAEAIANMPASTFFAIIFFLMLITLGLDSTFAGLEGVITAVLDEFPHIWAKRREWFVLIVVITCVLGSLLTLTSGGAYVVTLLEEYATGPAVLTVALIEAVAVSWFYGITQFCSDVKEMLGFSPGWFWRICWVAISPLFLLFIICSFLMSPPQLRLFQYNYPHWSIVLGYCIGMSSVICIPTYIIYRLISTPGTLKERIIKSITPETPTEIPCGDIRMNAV
In assay [6] the target is T2, 5-hydroxytryptamine receptor 1A (Homo sapiens). The assay can be described thus: Inhibition of [3H]8-OH-DPAT binding to human 5-hydroxytryptamine 1A receptor at 1000 nM compound concentration.
In assay [7] the target is T3, Sodium-dependent serotonin transporter (Homo sapiens, UniProt P31645). The assay can be described thus: Inhibitory activity of compound against serotonin transport by RB5-5-HT transporter.
T3 sequence (P31645 whole entry): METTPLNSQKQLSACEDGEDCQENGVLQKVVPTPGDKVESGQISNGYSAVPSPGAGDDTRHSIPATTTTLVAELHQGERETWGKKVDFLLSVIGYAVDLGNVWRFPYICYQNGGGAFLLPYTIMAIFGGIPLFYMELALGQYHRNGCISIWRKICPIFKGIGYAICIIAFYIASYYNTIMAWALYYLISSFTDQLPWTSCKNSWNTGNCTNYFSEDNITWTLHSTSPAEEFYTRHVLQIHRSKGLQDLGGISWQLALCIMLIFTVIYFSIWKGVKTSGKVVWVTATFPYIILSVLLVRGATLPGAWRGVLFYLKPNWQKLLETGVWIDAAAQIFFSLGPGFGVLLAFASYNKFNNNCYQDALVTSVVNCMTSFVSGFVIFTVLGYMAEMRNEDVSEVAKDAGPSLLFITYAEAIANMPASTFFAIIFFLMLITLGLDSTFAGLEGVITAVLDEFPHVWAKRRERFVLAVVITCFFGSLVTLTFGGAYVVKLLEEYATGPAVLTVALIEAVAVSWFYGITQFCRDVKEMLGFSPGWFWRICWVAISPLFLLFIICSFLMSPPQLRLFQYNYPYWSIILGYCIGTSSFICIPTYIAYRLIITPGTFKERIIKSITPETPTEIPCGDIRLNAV
Assay [8] addresses T4, Adrenergic receptor alpha-1 (Rattus norvegicus, UniProt P15823+P23944+P43140).
T4 sequence (P15823 whole entry): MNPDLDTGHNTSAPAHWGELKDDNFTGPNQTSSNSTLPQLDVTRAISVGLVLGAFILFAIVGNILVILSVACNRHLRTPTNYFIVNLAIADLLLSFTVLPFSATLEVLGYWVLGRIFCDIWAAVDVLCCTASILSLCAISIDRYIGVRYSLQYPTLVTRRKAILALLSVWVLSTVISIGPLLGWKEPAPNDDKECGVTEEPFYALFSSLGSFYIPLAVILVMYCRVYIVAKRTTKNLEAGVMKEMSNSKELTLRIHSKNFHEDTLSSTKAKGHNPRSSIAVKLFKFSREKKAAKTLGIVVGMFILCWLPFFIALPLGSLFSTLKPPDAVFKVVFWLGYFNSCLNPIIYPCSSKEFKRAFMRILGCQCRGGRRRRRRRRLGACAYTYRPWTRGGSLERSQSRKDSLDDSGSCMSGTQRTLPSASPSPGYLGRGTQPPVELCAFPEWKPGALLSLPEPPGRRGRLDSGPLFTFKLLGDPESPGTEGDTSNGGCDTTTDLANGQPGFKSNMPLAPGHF
T4 sequence (P23944 whole entry): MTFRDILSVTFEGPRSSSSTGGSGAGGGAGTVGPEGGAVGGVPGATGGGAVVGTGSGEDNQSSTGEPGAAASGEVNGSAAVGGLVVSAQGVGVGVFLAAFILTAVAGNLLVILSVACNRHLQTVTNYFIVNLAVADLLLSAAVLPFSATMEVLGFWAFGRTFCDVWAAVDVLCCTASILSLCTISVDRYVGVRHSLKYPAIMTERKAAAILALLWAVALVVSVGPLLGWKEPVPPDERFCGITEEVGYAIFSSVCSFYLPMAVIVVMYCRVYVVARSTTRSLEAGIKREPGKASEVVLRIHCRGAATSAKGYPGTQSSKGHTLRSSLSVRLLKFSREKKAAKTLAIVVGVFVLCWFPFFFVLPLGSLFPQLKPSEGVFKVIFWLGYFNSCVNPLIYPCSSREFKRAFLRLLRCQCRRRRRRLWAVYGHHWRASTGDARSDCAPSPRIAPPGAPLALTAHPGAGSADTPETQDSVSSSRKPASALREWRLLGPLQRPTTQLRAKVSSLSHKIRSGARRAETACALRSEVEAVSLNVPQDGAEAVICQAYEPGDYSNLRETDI
T4 sequence (P43140 whole entry): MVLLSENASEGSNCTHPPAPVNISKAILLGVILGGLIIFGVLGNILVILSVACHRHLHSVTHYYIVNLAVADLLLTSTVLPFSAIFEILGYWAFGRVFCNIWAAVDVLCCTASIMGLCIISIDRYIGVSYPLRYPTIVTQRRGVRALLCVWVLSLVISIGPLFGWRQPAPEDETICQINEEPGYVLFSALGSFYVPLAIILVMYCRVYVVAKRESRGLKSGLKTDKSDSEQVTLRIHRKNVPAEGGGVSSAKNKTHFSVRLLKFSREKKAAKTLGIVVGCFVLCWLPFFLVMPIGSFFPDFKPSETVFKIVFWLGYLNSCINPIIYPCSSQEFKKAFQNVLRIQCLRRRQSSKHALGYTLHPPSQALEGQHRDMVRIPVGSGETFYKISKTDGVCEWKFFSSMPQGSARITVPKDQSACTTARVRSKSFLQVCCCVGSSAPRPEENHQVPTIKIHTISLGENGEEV
In words: Displacement of [3H]prazosin from alpha-1 adrenergic receptor. The class given is protein assay. (In general: In a radioligand displacement assay an active substance lowers the binding of a labelled ligand.)

The target in assay [9] is T3, Sodium-dependent serotonin transporter. In words: Inhibitory activity of compound against serotonin transport by HC5-5-HT transporter.
The target of assay [10] is Adrenergic receptor alpha-1 (Homo sapiens) (UniProt P35348+P25100+P35368). In words: Inhibition of [3H]prazosin binding to alpha-1 adrenergic receptor at 100 nM compound concentration. The class given is protein assay.

Turning to `COc1cccc2c1O[C@@H](CN1[C@@H]3CC[C@H]1C[C@](O)(c1ccccc1)C3)CO2`, the Ki in [1] amounted to 1.53 nM. Moreover, the concentration for half-maximal inhibition (IC50) in [2] stood at 21 nM; in [4] it was 25 nM. This molecule also yielded an Imax in [3] of 100%. The molecule further registered an inhibition in assay [5] of 0%.
In assay [1], `COc1ccccc1[C@]1(O)C[C@H]2CC[C@@H](C1)N2C[C@H]1COc2cccc(OC)c2O1` gave an inhibitory constant (Ki) of 39 nM. In [3], this molecule came in with a maximal effect (Emax) of 40%. In assay [5], this molecule gave an inhibition of 12%.
On to `COc1cccc2c1O[C@@H](CN1[C@@H]3CC[C@H]1C[C@](O)(c1ccccn1)C3)CO2`, for which the inhibition constant (Ki) in assay [1] amounted to 46 nM. In assay [3], this molecule gave an Imax of 100%. In assay [4], the IC50 was found to be 1480 nM. This molecule gave an inhibition in [5] of 0%.
In the case of `COc1cccc2c1O[C@@H](CN1C3C=C(c4ccc5ccccc5c4)CC1CC3)CO2` (stereo partly drawn), the inhibition in assay [6] is 43%. For the same molecule, the inhibition constant Ki stood at 1.4 nM in assay [7] and 229 nM in [8]. This molecule yielded a 50% inhibitory concentration (IC50) in assay [9] of 767 nM.
On to `COc1cccc2c1O[C@@H](CN1[C@@H]3CC[C@H]1C[C@](O)(c1cccc(C(F)(F)F)c1)C3)CO2`, for which the inhibition constant (Ki) was 9.9 nM in assay [8] and 0.33 nM in assay [1]. This molecule also had an Emax in [3] of 90%. Besides, the inhibition in assay [5] was found to be 9%.
As to `CCOc1cccc2c1O[C@@H](CN1[C@@H]3CC[C@H]1C[C@](O)(c1ccc4ccccc4c1)C3)CO2`, the results for the Ki in [8] and in [1] were 103.5 nM and 5.87 nM, respectively. The molecule further displayed an inhibition in [5] of 0%.
Regarding `COc1cccc2c1O[C@@H](CN1[C@@H]3CC[C@H]1C[C@](O)(c1ccc4ccccc4c1)C3)CO2`, the figures for the inhibition constant Ki in assay [8] and in [1] were 42 nM and 0.81 nM, respectively. Moreover, the half-maximal inhibitory concentration (IC50) came to 21 nM in assay [2] and 9.85 nM in assay [4]. This molecule also came in with an Imax in assay [3] of 100%.
With `COc1cccc2c1O[C@@H](CN1C3C=C(c4cccc5cccnc45)CC1CC3)CO2` (stereo partly drawn), the Ki in assay [7] turned out to be 33 nM; in [8], 46.2 nM; in assay [1], 307 nM. For the same molecule, the concentration for half-maximal inhibition (IC50) in assay [9] turned out to be 109 nM.
`CCOc1cccc2c1O[C@@H](CN1[C@@H]3CC[C@H]1C[C@](O)(c1csc4ccccc14)C3)CO2`: the results for the inhibitory constant (Ki) in [8] and in assay [1] were 123.5 nM and 16.7 nM, respectively. For the same molecule, the inhibition in assay [5] was determined as 4%.
Taken in the same sequence, the figures for `CCOc1cccc2c1O[C@@H](CN1[C@@H]3CC[C@H]1C[C@](O)(c1ccccc1)C3)CO2` were 32.7 nM, 3.05 nM and 0%.
Taken in the same sequence, the figures for `CCOc1cccc2c1O[C@@H](CN1[C@@H]3CC[C@H]1C[C@](O)(c1ccccn1)C3)CO2` were 147 nM, 61.6 nM and 6%.
Regarding `COc1cccc2c1O[C@@H](CN1[C@@H]3CC[C@H]1C[C@](O)(c1csc4ccccc14)C3)CO2`, the inhibitory constant (Ki) in [8] was 106 nM; in assay [1], 1.6 nM. Besides, the IC50 was found to be 130 nM in [2] and 36 nM in assay [4]. The maximum response (Emax) in assay [3] was determined as 0%. The Imax in [3] came to 92%. The inhibition in [5] was found to be 0%.
Consider `COc1cccc2c1O[C@@H](CN1C3C=C(c4cccc5ccccc45)CC1CC3)CO2` (stereo partly drawn), for which the inhibition constant Ki in assay [7] came out at 26 nM; in [1] it was 357 nM. The same molecule displayed an inhibition in [10] of 26%. The same molecule came in with a concentration for half-maximal inhibition (IC50) in assay [9] of 951 nM.
Regarding `COc1cccc2c1O[C@@H](CN1C3C=C(n4ccc5cc(F)ccc54)CC1CC3)CO2` (stereo partly drawn), the inhibitory constant (Ki) was found to be 8.5 nM in [7], 71 nM in assay [8] and 128 nM in assay [1]. In assay [9], 138 nM corresponded to half-maximal inhibition (IC50).
Turning to `CCOc1cccc2c1O[C@@H](CN1[C@@H]3CC[C@H]1C[C@](O)(c1cccc(C(F)(F)F)c1)C3)CO2`, the Ki in assay [8] worked out at 12.9 nM; in assay [1], 2.92 nM. The same molecule registered an inhibition in assay [5] of 0%.
`COc1cccc2c1O[C@@H](CN1C3C=C(c4ccc(Cl)c(Cl)c4)CC1CC3)CO2` (stereo partly drawn) registered an inhibition in assay [6] of 35%. Moreover, the values for the Ki in [7] and in assay [8] were 4.69 nM and greater than 1000 nM, respectively. In assay [9], the 50% inhibitory concentration (IC50) turned out to be 260 nM.
